The source of these data is patent publication US20070219180A1, “Muscle Relaxtion Accelerator and Therapeutic Agent for Muscular Tissue Diseases Such as Muscle Relaxation Failure” (priority 2004, published 2007).

Molecules are shown by their SMILES.

This assay deals with T1, troponin I and the actin-tropomyosin complex (Homo sapiens, UniProt P19429).
T1 construct: human myocardium-derived troponin I with a molecular weight of 24 kDa; purchased Calbiochem Inc (troponin I); Abcam PLC (troponin C); SIGMA (actin, tropomyosin); host or cells: troponin I from human myocardium
Briefly: Experiments 6 and 7: affinity of troponin I and the actin-tropomyosin complex (co-precipitation at defined Ca concentration). Type of assay: binding. The procedure: A solution of 0.4 μg of troponin I (Calbiochem Inc) and 0.54 μg of troponin C (Abcam PLC) was added to 23 μl of distilled water, distributed to 4 test tubes, and centrifuged at 100,000 g for 1 hour (HITACHI Himac 120FC), and 20 μl of the resulting supernatant was collected and stored at 4° C. Then, 50 μl of 600 mM KCl solution, 50 μl of 200 mM MOPS (3-morpholinopropanesulfonic acid) [3-N (morpholino) propanesulfonic acid] (DOJINDO) solution, 50 μl of 20 mM MgCl2 solution, 5 μl of 10 mg/ml pepstatin A (SIGMA) solution, and 50 μl of 150 mM 2-mercaptoethanol (SIGMA) were added as a reaction solution to 99.4 μl of distilled water, and distributed to another 4 test tubes. Next, 3.2 μl of 1 mg/ml actin (SIGMA) and 2.4 μl of 1 mg/ml tropomyosin (SIGMA) were added and mixed, and the mixture was then centrifuged at 2000 g for 5 minutes at 25° C. using a centrifuge (HITACHI Himac CF7D2). The resulting supernatant was put into 4 new test tubes, 50 μl of 50 mM ATP (adenosine 5′-triphosphate) solution was added, and the solution was incubated at 25° C. with mixing for 30 minutes.
Next, 20 μl of the 100,000 g supernatant of troponin I and troponin C which was previously prepared was added to each test tube, and incubated at 25° C. with mixing for 30 minutes. Distilled water alone or 50 μl of a test solution in which the final concentration of the compound was adjusted to 10^−7, 10^−6 and 10^−5 M was added, and the resulting solution was incubated at 25° C. with mixing for 30 minutes.
[…] The solution was incubated at 25° C. with intermittent mixing for 60 minutes, and then centrifuged at 100,000 g for 120 minutes at 25° C. using a centrifuge (HITACHI Himac 120FC: brand name).
After centrifugation, the supernatant was removed, 1 ml of the reaction liquid (excluding Ca^2+ and the drug) was gently added so as not to suspend any precipitate, and the precipitate was again removed by suction; the procedure was repeated twice and the precipitate washed 3 times in total.
The washing solution was removed completely, 20 μl of a sample buffer for polyacrylamide gel electrophoresis (SDS-PAGE) was added and mixed well, the precipitate was suspended and heated for 5 minutes at 95° C., and then poured into a PAG MINI “No. 1” 10/20 gel (Daiichi Pure Chemicals Co., Ltd) and electrophoresized for about 1 hour at 40 mA. After electrophoresis, the suspension was silver-stained using “Daiichi” 2D-silver staining reagent (Daiichi Pure Chemicals Co., Ltd), and washed and dried. Finally, the suspension was scanned (EPSON ES-8500 scanner: brand name) and analyzed (Image J software: brand name).
In this experiment, at a calcium concentration in the test tube of 10^−6 M, the amount of troponin I precipitated in the absence of the compound was set at 1.0. Relatively, the amount of co-precipitation in the presence of 10^−7, 10^−6 and 10^−5 M concentrations of the compound was 1.4, 3.4, and 5.4, respectively; therefore, it was confirmed that the amount of troponin I precipitate increased with an increase in the compound concentration. The actin used in this experiment was swine skeletal muscle-derived actin with a molecular weight of 43 kDa, and was purchased from SIGMA. Tropomyosin used in this experiment was gizzard-derived tropomyosin with a molecular weight of 36 kDa, and was purchased from SIGMA. Troponin I used in this experiment was human myocardium-derived troponin I with a molecular weight of 24 kDa, and was purchased from Calbiochem Inc. Troponin C used in this experiment was human myocardium recombinant-derived troponin C with a molecular weight of 18 kDa, and was purchased from Abcam PLC. These proteins were separated by SDS-polyacrylamide gel electrophoresis and each band was clearly identifiable. […]

The mark [1] stands for this setting: Ca 10^−6 M, the compound 10^−5 M.

As for `COc1ccc2c(c1)CN(C(=O)CCN1CCC(Cc3ccccc3)CC1)CCS2` [the compound, 4-[3-(4-benzylpiperidine-1-yl)propionyl]-7-methoxy-2,3,4,5-tetrahydro-1,4-benzothiazepine], the “Amount of precipitate of troponin I, Ratio (Ca 10^−8 M = 1.0)” value (“Amount … Ratio (Ca 10^−8 M = 1.0)” for short) (Ca 10^−5 M, the compound 10^−5 M) is 0.78; the “Amount … Ratio (Ca 10^−8 M = 1.0)” value under setting [1] worked out at 0.81; the “Amount … Ratio (Ca 10^−8 M = 1.0)” value (Ca 10^−7 M, the compound 10^−5 M) amounted to 0.94; the “Amount … Ratio (Ca 10^−8 M = 1.0)” value (Ca 10^−8 M, the compound 10^−5 M (reference set at 1.0)) amounted to 1.0. Further, the “Amount of precipitate of troponin I, Ratio (no compound = 1.0)” value is given as 5.4 under setting [1]; 3.4 (Ca 10^−6 M, the compound 10^−6 M); 1.4 (Ca 10^−6 M, the compound 10^−7 M).
